Measurements from patent US11147272B2, “Pyridone compounds and agricultural and horticultural fungicides comprising the same as active ingredients” (MITSUI CHEMICALS AGRO, INC., priority 2017, dated 2021).

What was measured:
[1] = tested on: Blumeria graminis f. sp. hordei; experiment: Test Example D: Powdery mildew on barley; details: Powdery mildew on barley; class of control value
Puccinia recondita = experiment: Test Example E: Brown rust on wheat; type: in vivo; details: Brown rust on wheat; class of control value
Phytophthora infestans = experiment: whole plant or invertebrate; type: in vivo; details: Late blight on tomato; class of control value
Plasmopara viticola = experiment: Test Example G: Downy mildew on vine; details: Downy mildew on vine (Neomuscat); 250 ppm spray, 2.5 ml/pot; assessed 7 to 10 days after inoculation
[2] = tested on: Colletotrichum orbiculare; experiment: Test Example H: Anthracnose on cucumber; details: Anthracnose on cucumber (Sagami Hanjiro); 250 ppm spray, 2.5 ml/pot; assessed 6 to 10 days after inoculation
Alternaia brassicicola = experiment: Test Example C: Alternaria sooty spot on cabbage; type: in vivo; details: Alternaria sooty spot on cabbage; class of control value
Text: Seeds of a test plant (cabbage variety: Shikidori) were planted and cultivated until the cotyledons extended.
<Control Value> Control value=100{1−(n/3)}

Botrytis cinerea = experiment: Test Example B: Gray mold on tomato; details: Gray mold on tomato; class of control value
Magnaporthe grisea = experiment: whole plant or invertebrate; type: in vivo; details: Blast on rice; class of control value

SMILES: COc1cc(F)c(-c2c(C(C)(C)C)cc(Br)c(=O)n2C)c(F)c1 [compound 82]
- Test D control value class [1]: L (50% or less control value)
- Test E control value class (Puccinia recondita): H (more than 50% control value)
- Test F control value class (Phytophthora infestans): L (50% or less control value)
- Test G control value class (Plasmopara viticola): H (more than 50% control value)
- Test H control value class [2]: H (more than 50% control value)
- Test C control value class (Alternaia brassicicola): H (more than 50% control value)
- Test B control value class (Botrytis cinerea): H (more than 50% control value)
- Test A control value class (Magnaporthe grisea): L (50% or less control value)

SMILES: CCn1c(-c2c(F)cc(OCCOC)cc2F)c(C(C)(C)C)cc(Cl)c1=O [compound 83]
- Test D control value class [1]: L (50% or less control value)
- Test E control value class (Puccinia recondita): H (more than 50% control value)
- Test F control value class (Phytophthora infestans): L (50% or less control value)
- Test G control value class (Plasmopara viticola): H (more than 50% control value)
- Test H control value class [2]: H (more than 50% control value)
- Test C control value class (Alternaia brassicicola): H (more than 50% control value)
- Test B control value class (Botrytis cinerea): H (more than 50% control value)
- Test A control value class (Magnaporthe grisea): H (more than 50% control value)

SMILES: COCCOc1cc(F)c(-c2c(C(C)(C)C)cc(Cl)c(=O)n2C)c(F)c1 [compound 84]
- Test D control value class [1]: L (50% or less control value)
- Test E control value class (Puccinia recondita): L (50% or less control value)
- Test F control value class (Phytophthora infestans): L (50% or less control value)
- Test G control value class (Plasmopara viticola): L (50% or less control value)
- Test H control value class [2]: H (more than 50% control value)
- Test C control value class (Alternaia brassicicola): H (more than 50% control value)
- Test B control value class (Botrytis cinerea): L (50% or less control value)
- Test A control value class (Magnaporthe grisea): L (50% or less control value)

SMILES: COc1cc(F)c(-c2c(C(C)(C)C)cc(Cl)c(=O)n2C)c(F)c1 [compound 85]
- Test D control value class [1]: L (50% or less control value)
- Test E control value class (Puccinia recondita): H (more than 50% control value)
- Test F control value class (Phytophthora infestans): L (50% or less control value)
- Test G control value class (Plasmopara viticola): L (50% or less control value)
- Test H control value class [2]: H (more than 50% control value)
- Test C control value class (Alternaia brassicicola): H (more than 50% control value)
- Test B control value class (Botrytis cinerea): H (more than 50% control value)
- Test A control value class (Magnaporthe grisea): H (more than 50% control value)

SMILES: CCn1c(-c2c(F)cc(F)cc2F)c(CN(C)C(C)C)cc(Cl)c1=O [compound 86]
- Test D control value class [1]: L (50% or less control value)
- Test E control value class (Puccinia recondita): L (50% or less control value)
- Test F control value class (Phytophthora infestans): L (50% or less control value)
- Test G control value class (Plasmopara viticola): L (50% or less control value)
- Test H control value class [2]: L (50% or less control value)
- Test C control value class (Alternaia brassicicola): H (more than 50% control value)
- Test B control value class (Botrytis cinerea): L (50% or less control value)
- Test A control value class (Magnaporthe grisea): L (50% or less control value)

SMILES: CCn1c(-c2c(F)cc(OC)cc2F)c(C(CC(C)C)OC)cc(Cl)c1=O (centres unmarked) [compound 87]
- Test D control value class [1]: H (more than 50% control value)
- Test E control value class (Puccinia recondita): H (more than 50% control value)
- Test F control value class (Phytophthora infestans): L (50% or less control value)
- Test G control value class (Plasmopara viticola): L (50% or less control value)
- Test H control value class [2]: H (more than 50% control value)
- Test C control value class (Alternaia brassicicola): H (more than 50% control value)
- Test B control value class (Botrytis cinerea): H (more than 50% control value)
- Test A control value class (Magnaporthe grisea): L (50% or less control value)

SMILES: CCn1c(-c2c(F)cc(OC)cc2F)c(CN(C)C(C)C)cc(Cl)c1=O [compound 88]
- Test D control value class [1]: H (more than 50% control value)
- Test E control value class (Puccinia recondita): H (more than 50% control value)
- Test F control value class (Phytophthora infestans): L (50% or less control value)
- Test G control value class (Plasmopara viticola): L (50% or less control value)
- Test H control value class [2]: L (50% or less control value)
- Test C control value class (Alternaia brassicicola): H (more than 50% control value)
- Test B control value class (Botrytis cinerea): H (more than 50% control value)
- Test A control value class (Magnaporthe grisea): L (50% or less control value)

SMILES: CCn1c(-c2c(F)cc(F)cc2F)c(C(O)CC(C)C)cc(Cl)c1=O (centres unmarked) [compound 90]
- Test D control value class [1]: H (more than 50% control value)
- Test E control value class (Puccinia recondita): H (more than 50% control value)
- Test F control value class (Phytophthora infestans): L (50% or less control value)
- Test G control value class (Plasmopara viticola): H (more than 50% control value)
- Test H control value class [2]: H (more than 50% control value)
- Test C control value class (Alternaia brassicicola): H (more than 50% control value)
- Test B control value class (Botrytis cinerea): H (more than 50% control value)
- Test A control value class (Magnaporthe grisea): H (more than 50% control value)

SMILES: CCn1c(-c2c(F)cc(F)cc2F)c(CN(C)C)cc(Cl)c1=O [compound 91]
- Test D control value class [1]: L (50% or less control value)
- Test E control value class (Puccinia recondita): H (more than 50% control value)
- Test F control value class (Phytophthora infestans): L (50% or less control value)
- Test G control value class (Plasmopara viticola): L (50% or less control value)
- Test H control value class [2]: H (more than 50% control value)
- Test C control value class (Alternaia brassicicola): L (50% or less control value)
- Test B control value class (Botrytis cinerea): L (50% or less control value)
- Test A control value class (Magnaporthe grisea): L (50% or less control value)

SMILES: CCn1c(-c2c(F)cc(OC)cc2F)c(CN(C)C)cc(Cl)c1=O [compound 92]
- Test D control value class [1]: L (50% or less control value)
- Test E control value class (Puccinia recondita): H (more than 50% control value)
- Test F control value class (Phytophthora infestans): L (50% or less control value)
- Test G control value class (Plasmopara viticola): L (50% or less control value)
- Test H control value class [2]: H (more than 50% control value)
- Test C control value class (Alternaia brassicicola): H (more than 50% control value)
- Test B control value class (Botrytis cinerea): L (50% or less control value)
- Test A control value class (Magnaporthe grisea): H (more than 50% control value)

SMILES: CCn1c(-c2c(F)cc(OC)cc2F)c(CN(C)OC)cc(Cl)c1=O [compound 94]
- Test D control value class [1]: H (more than 50% control value)
- Test E control value class (Puccinia recondita): H (more than 50% control value)
- Test F control value class (Phytophthora infestans): H (more than 50% control value)
- Test G control value class (Plasmopara viticola): H (more than 50% control value)
- Test H control value class [2]: H (more than 50% control value)
- Test C control value class (Alternaia brassicicola): H (more than 50% control value)
- Test B control value class (Botrytis cinerea): H (more than 50% control value)
- Test A control value class (Magnaporthe grisea): H (more than 50% control value)

SMILES: CCn1c(-c2c(F)cccc2OC)c(CC(C)C)ccc1=O [compound 95]
- Test D control value class [1]: H (more than 50% control value)
- Test E control value class (Puccinia recondita): H (more than 50% control value)
- Test F control value class (Phytophthora infestans): H (more than 50% control value)
- Test G control value class (Plasmopara viticola): L (50% or less control value)
- Test H control value class [2]: L (50% or less control value)
- Test C control value class (Alternaia brassicicola): L (50% or less control value)
- Test B control value class (Botrytis cinerea): H (more than 50% control value)
- Test A control value class (Magnaporthe grisea): L (50% or less control value)

SMILES: CCn1c(-c2c(F)cccc2OC)c(CC(C)C)cc(Br)c1=O [compound 96]
- Test D control value class [1]: H (more than 50% control value)
- Test E control value class (Puccinia recondita): H (more than 50% control value)
- Test F control value class (Phytophthora infestans): L (50% or less control value)
- Test G control value class (Plasmopara viticola): L (50% or less control value)
- Test H control value class [2]: H (more than 50% control value)
- Test C control value class (Alternaia brassicicola): H (more than 50% control value)
- Test B control value class (Botrytis cinerea): H (more than 50% control value)
- Test A control value class (Magnaporthe grisea): L (50% or less control value)

SMILES: CCn1c(-c2c(F)cccc2OC)c(CC(C)C)cc(Cl)c1=O [compound 97]
- Test D control value class [1]: H (more than 50% control value)
- Test E control value class (Puccinia recondita): H (more than 50% control value)
- Test F control value class (Phytophthora infestans): L (50% or less control value)
- Test G control value class (Plasmopara viticola): L (50% or less control value)
- Test H control value class [2]: H (more than 50% control value)
- Test C control value class (Alternaia brassicicola): H (more than 50% control value)
- Test B control value class (Botrytis cinerea): H (more than 50% control value)
- Test A control value class (Magnaporthe grisea): H (more than 50% control value)

SMILES: CCn1c(-c2ccc(F)cc2Cl)c(CC(C)C)cc(Br)c1=O [compound 100]
- Test D control value class [1]: H (more than 50% control value)
- Test E control value class (Puccinia recondita): H (more than 50% control value)
- Test F control value class (Phytophthora infestans): L (50% or less control value)
- Test G control value class (Plasmopara viticola): H (more than 50% control value)
- Test H control value class [2]: H (more than 50% control value)
- Test C control value class (Alternaia brassicicola): H (more than 50% control value)
- Test B control value class (Botrytis cinerea): H (more than 50% control value)
- Test A control value class (Magnaporthe grisea): H (more than 50% control value)

SMILES: CCn1c(-c2c(O)cccc2F)c(CC(C)C)cc(Cl)c1=O [compound 101]
- Test D control value class [1]: L (50% or less control value)
- Test E control value class (Puccinia recondita): H (more than 50% control value)
- Test F control value class (Phytophthora infestans): H (more than 50% control value)
- Test G control value class (Plasmopara viticola): H (more than 50% control value)
- Test H control value class [2]: L (50% or less control value)
- Test C control value class (Alternaia brassicicola): L (50% or less control value)
- Test B control value class (Botrytis cinerea): H (more than 50% control value)
- Test A control value class (Magnaporthe grisea): L (50% or less control value)
